Experiments:
[1] = bioavailability of cilostazol Form A; assay type: in vivo; details: Form A as prepared by the procedures of the '479 patent
[2] = aqueous solubility of cilostazol polymorphic forms; assay type: physicochemical
[3] = stability of the polymorphic form; assay type: physicochemical; details: statement in summary, no conditions given

With O=C1CCc2cc(OCCCCc3nnnn3C3CCCCC3)ccc2N1 [Form A, 6-[4-(1-cyclohexyl-1H-tetrazol-5-yl)butoxy]-3,4-dihydro-2(1H)-quinolinone] the bioavailability [1] was “low bioavailability” and the aqueous solubility ([2]; Form A as prepared by the procedures of the '479 patent) was “low aqueous solubility”.
With O=C1CCc2cc(OCCCCc3nnnn3C3CCCCC3)ccc2N1 [Form B, 6-[4-(1-cyclohexyl-1H-tetrazol-5-yl)butoxy]-3,4-dihydro-2(1H)-quinolinone] the “stability of the form” value [3] was “stable” and the “solubility relative to Form A” value ([2]; inferred from lower DSC melting point (FIG. 8), no solubility measurement) was “more soluble than Form A”.
